Drawing on patent US20190177284A1, “TETRAZOLYL-CONTAINING CYCLOPROPANECARBOXAMIDES” (Bayer Pharma Aktiengesellschaft, priority 2017, published 2019), this text covers IC50 for 21 compounds.

The assay addresses T1, human Bradykinin B1 receptor (Homo sapiens, UniProt P46663).
T1 construct: host or cells: CHO-K1
T1 sequence (P46663 1-353): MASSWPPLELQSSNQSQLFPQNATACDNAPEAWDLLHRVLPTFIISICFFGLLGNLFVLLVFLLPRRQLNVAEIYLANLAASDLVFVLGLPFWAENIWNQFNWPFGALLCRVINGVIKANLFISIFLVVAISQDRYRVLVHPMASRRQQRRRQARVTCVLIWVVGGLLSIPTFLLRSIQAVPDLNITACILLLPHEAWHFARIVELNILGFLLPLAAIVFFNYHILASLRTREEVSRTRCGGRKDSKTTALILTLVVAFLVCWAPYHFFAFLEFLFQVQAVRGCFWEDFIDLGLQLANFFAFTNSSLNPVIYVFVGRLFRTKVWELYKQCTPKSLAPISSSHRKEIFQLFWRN
Briefly: Calcium flux Assay (FLIPR) with cells expressing human Bradykinin B1 receptor (hB1). The class given is cell-based. Particulars: absence of 0.1% BSA in assay buffer; CHO-K1 cell line expressing human B1 receptor; agonist Lys-(Des-Arg)-Bradykinin; read-out: hB1 free IC50. Here is the method:
The potency to inhibit the Bradykinin B1 receptor was determined for the compound examples of this invention in a cell-based fluorescent calcium-mobilisation assay. The assay measures the ability of compound examples to inhibit Bradykinin B1 receptor agonist-induced increase of intracellular free Ca^2+ in the cell line expressing Bradykinin B1 receptor. Specifically, calcium indicator-loaded cells are pre-incubated in the absence or presence of different concentrations of compound examples followed by the stimulation with a selective Bradykinin B1 receptor agonist peptide. The change of the intracellular Ca^2+ concentration is monitored with a fluorescent plate reader FLIPR^TETRA®
Calcium flux Assays (FLIPR) with cells expressing human Bradykinin B1 receptor (hB1) Calcium flux Assay (FLIPR) with recombinant cells for Bradykinin B1 receptor antagonist, either in the presence (hB1 IC50) or absence (hB1 free IC50) of 0.1% Bovine Serum Albumin (BSA) in assay buffer.
CHO—K1 cell line expressing human B1 receptor was purchased from Euroscreen (Gosselies, Belgium, with reference name hB1-D1). The cells were grown in Nutrient Mixture Ham's F12 (Sigma) containing 10% Foetal bovine serum (Sigma) and 400 μg/mL G418 (Sigma), 5 μg/mL puromycin (Sigma).
For the calcium flux assay, 80% confluent cells were detached from the culture vessels with Versene (Gibco), and seeded into 384-well plates (Cell binding Surface; Corning, N.Y.; #3683) at a density of 15,000 cells per well. Cells were seeded in a volume of 50 μL in medium without antibiotics and incubated overnight in a humidified atmosphere with 5% CO2 at 37° C. […] The calcium indicator loaded cells were incubated at 37° C. for 2 hrs. Extracellular dye was then removed and each well was filled with 45 μL of assay buffer. Cell plates were kept in dark until used. Example compounds were assayed at 8 concentrations in triplicate. Serial 10-fold dilutions in 100% DMSO were made at a 100-times higher concentration than the final concentration, and then diluted 1:10 in assay buffer. 5 μL of each diluted compound was added to the well of cell plates (yielding final concentration with 1% DMSO), and incubated for 30 min at 28° C. before the addition of B1 receptor agonist on the FLIPR instrument.
Agonist plates contained the agonist Lys-(Des-Arg)-Bradykinin (Bachem, Brackley) at 3.5×EC90 in assay buffer with 1% DMSO. The addition of agonist 20 μl per well to the assay plate was carried out on the FLIPR instrument while continuously monitoring Ca^2+-dependent fluorescence at 538 nm. A peptide antagonist Lys-(Des-Arg-Leu)-Bradykinin (Bachem, Brackley) at 20 μM was used to determine the full inhibition as control.
Peak fluorescence was used to determine the response to agonist obtained at each concentration of example compound by the following equation:
% Response=100*(RFU(example compound)−RFU(control))/(RFU(DMSO)−RFU(control)) • RFU means relative fluorescence units. • Control means full inhibition by the peptide antagonist Lys-(Des-Arg-Leu)-Bradykinin at 20
The response values were plotted against the logarithm of the example compound concentrations. The example compounds were tested in triplicates per plate and mean values were plotted in Excel XLfit to determine IC50 values, percentage of maximal inhibition and the Hill slopes.
IC50 values of example compounds in Calcium flux Assay (FLIPR) as shown in table 1 were determined according to the protocol described above in the absence of 0.1% BSA in assay buffer.

The IC50 is the point on the concentration scale where inhibition reaches its midpoint. For `O=C(O[C@H]1CCOC1)c1ccc(NC(=O)C2(c3ccc(C(F)(F)F)cc3F)CC2)cc1-c1nnn[nH]1` [Example 19, (3S)-Tetrahydrofuran-3-yl 4-[({1-[2-fluoro-4-(trifluoromethyl)phenyl]cyclopropyl}carbonyl)amino]-2-(1H-tetrazol-5-yl)benzoate], the IC50 was determined as 13 nM. Under `O=C(O[C@@H]1CCOC1)c1ccc(NC(=O)C2(c3ccc(C(F)(F)F)cc3F)CC2)cc1-c1nnn[nH]1` [Example 20, (3R)-Tetrahydrofuran-3-yl 4-[({1-[2-fluoro-4-(trifluoromethyl)phenyl]cyclopropyl}carbonyl)amino]-2-(1H-tetrazol-5-yl)benzoate] stands 14 nM; under `O=C(OC1CCOCC1)c1ccc(NC(=O)C2(c3ccc(C(F)(F)F)cc3F)CC2)cc1-c1nnn[nH]1` [Example 21, Tetrahydro-2H-pyran-4-yl 4-[({1-[2-fluoro-4-(trifluoromethyl)phenyl]cyclopropyl}carbonyl)amino]-2-(1H-tetrazol-5-yl)benzoate], 22 nM; under `O=C(OCC1CCOCC1)c1ccc(NC(=O)C2(c3ccc(C(F)(F)F)cc3F)CC2)cc1-c1nnn[nH]1` [Example 22, Tetrahydro-2H-pyran-4-ylmethyl 4-[({1-[2-fluoro-4-(trifluoromethyl)phenyl]cyclopropyl}carbonyl)amino]-2-(1H-tetrazol-5-yl)benzoate], 18 nM. Under `CN1CCC(OC(=O)c2ccc(NC(=O)C3(c4ccc(C(F)(F)F)cc4F)CC3)cc2-c2nnn[nH]2)CC1` [Example 23, 1-Methylpiperidin-4-yl 4-[({1-[2-fluoro-4-(trifluoromethyl)phenyl]cyclopropyl}carbonyl)amino]-2-(1H-tetrazol-5-yl)benzoate] stands 319 nM.

On to `CC[C@@H](C)OC(=O)c1ccc(NC(=O)C2(c3ccc(C(F)(F)F)cc3F)CC2)cc1-c1nnn[nH]1` [Example 24, (2R)-Butan-2-yl 4-[({1-[2-fluoro-4-(trifluoromethyl)phenyl]cycloproyl}carbonyl)amino]-2-(1H-tetrazol-5-yl)benzoate], for which the IC50 is 2 nM. Under `CC[C@H](C)OC(=O)c1ccc(NC(=O)C2(c3ccc(C(F)(F)F)cc3F)CC2)cc1-c1nnn[nH]1` [Example 25, (2S)-Butan-2-yl 4-[({1-[2-fluoro-4-(trifluoromethyl)phenyl]cyclopropyl}carbonyl)amino]-2-(1H-tetrazol-5-yl)benzoate] stands 3 nM. The figure for `CC[C@@H](C)OC(=O)c1ccc(NC(=O)C2(c3ccc(OC(F)(F)F)cc3F)CC2)cc1-c1nnn[nH]1` [Example 26, (2R)-Butan-2-yl 4-[({1-[2-fluoro-4-(trifluoromethoxy)phenyl]cyclopropyl}carbonyl)amino]-2-(1H-tetrazol-5-yl)benzoate] is 3 nM; for `CC[C@H](C)OC(=O)c1ccc(NC(=O)C2(c3ccc(OC(F)(F)F)cc3F)CC2)cc1-c1nnn[nH]1` [Example 27, (2S)-Butan-2-yl 4-[({1-[2-fluoro-4-(trifluoromethoxy)phenyl]cyclopropyl}carbonyl)amino]-2-(1H-tetrazol-5-yl)benzoate] it is 2 nM. Under `CC(C)COC(=O)c1ccc(NC(=O)C2(c3ccc(C(F)(F)F)cc3F)CC2)cc1-c1nnn[nH]1` [Example 28, Isobutyl 4-[({1-[2-fluoro-4-(trifluoromethyl)phenyl]cyclopropyl}carbonyl)amino]-2-(1H-tetrazol-5-yl)benzoate] stands 3 nM.

Regarding `CC(C)(C)COC(=O)c1ccc(NC(=O)C2(c3ccc(C(F)(F)F)cc3F)CC2)cc1-c1nnn[nH]1` [Example 29, 2,2-Dimethylpropyl 4-[({1-[2-fluoro-4-(trifluoromethyl)phenyl]cyclopropyl}carbonyl)amino]-2-(1H-tetrazol-5-yl)benzoate], the half-inhibitory concentration (IC50) came to 6 nM.

Take `O=C(OC1CCC1)c1ccc(NC(=O)C2(c3ccc(C(F)(F)F)cc3F)CC2)cc1-c1nnn[nH]1` [Example 30, Cyclobutyl 4-[({1-[2-fluoro-4-(trifluoromethyl)phenyl]cyclopropyl}carbonyl)amino]-2-(1H-tetrazol-5-yl)benzoate]: the half-maximal inhibitory concentration (IC50) turned out to be 2 nM. Consider `O=C(c1ccc(NC(=O)C2(c3cccc(Cl)c3)CC2)cc1-c1nnn[nH]1)N1CCCCC1` [Example 33, 1-(3-Chlorophenyl)-N-[4-(piperidin-1-ylcarbonyl)-3-(1H-tetrazol-5-yl)phenyl]cyclopropanecarboxamide], for which the 50% inhibitory concentration (IC50) amounted to 633 nM. `O=C(c1ccc(NC(=O)C2(c3ccc(C(F)(F)F)cc3F)CC2)cc1-c1nnn[nH]1)N1CCCCC1` [Example 34, 1-[2-Fluoro-4-(trifluoromethyl)phenyl]-N-[4-(piperidin-1-ylcarbonyl)-3-(1H-tetrazol-5-yl)phenyl]cyclopropanecarboxamide]: the half-inhibitory concentration (IC50) worked out at 70 nM.

On to `COC1CCN(C(=O)c2ccc(NC(=O)C3(c4ccc(C(F)(F)F)cc4F)CC3)cc2-c2nnn[nH]2)CC1` [Example 36, 1-[2-Fluoro-4-(trifluoromethyl)phenyl]-N-{4-[(4-methoxypiperidin-1-yl)carbonyl]-3-(1H-tetrazol-5-yl)phenyl}cyclopropanecarboxamide], for which the IC50 was 523 nM. As to `CC[C@@H](C)NC(=O)c1ccc(NC(=O)C2(c3ccc(C(F)(F)F)cc3F)CC2)cc1-c1nnn[nH]1` [Example 37, N-[(2R)-butan-2-yl]-4-[({1-[2-fluoro-4-(trifluoromethyl)phenyl]cyclopropyl}carbonyl)amino]-2-(1H-tetrazol-5-yl)benzamide], the IC50 stood at 121 nM.

As to `CC[C@H](C)NC(=O)c1ccc(NC(=O)C2(c3ccc(C(F)(F)F)cc3F)CC2)cc1-c1nnn[nH]1` [Example 38, N-[(2S)-butan-2-yl]-4-[({1-[2-fluoro-4-(trifluoromethyl)phenyl]cyclopropyl}carbonyl)amino]-2-(1H-tetrazol-5-y)benzamide], the half-inhibitory concentration (IC50) turned out to be 80 nM. The figure for `O=C(NC1CCCC1)c1ccc(NC(=O)C2(c3ccc(C(F)(F)F)cc3F)CC2)cc1-c1nnn[nH]1` [Example 39, N-cyclopentyl-4-[({1-[2-fluoro-4-(trifluoromethyl)phenyl]cyclopropyl}carbonyl)amino]-2-(1H-tetrazol-5-yl)benzamide] is 34 nM; for `CN(C(=O)c1ccc(NC(=O)C2(c3cccc(Cl)c3)CC2)cc1-c1nnn[nH]1)C1CCCC1` [Example 40, 4-({[1-(3-Chlorophenyl)cyclopropyl]carbonyl}amino)-N-cylcopentyl-N-methyl-2-(1H-tetrazol-5-yl)benzamide] it is 1240 nM.

With `CN(C(=O)c1ccc(NC(=O)C2(c3ccc(C(F)(F)F)cc3F)CC2)cc1-c1nnn[nH]1)C1CCCC1` [Example 41, N-cyclopentyl-4-[({1-[2-fluoro-4-(trifluoromethyl)phenyl]cyclopropyl}carbonyl)amino]-N-methyl-2-(1H-tetrazol-5-yl)benzamide], the IC50 is 205 nM. The figure for `O=C(NC1CCCCC1)c1ccc(NC(=O)C2(c3ccc(C(F)(F)F)cc3F)CC2)cc1-c1nnn[nH]1` [Example 42, N-cyclohexyl-4-[({1-[2-fluoro-4-(trifluoromethyl)phenyl]cyclopropyl}carbonyl)amino]-2-(1H-tetrazol-5-yl)benzamide] is 34 nM.
